Laboratory results taken from patent publication US20240174649A1, “CULLIN-RING E3 UBIQUITIN LIGASE 4 INHIBITOR COMPOUNDS AND METHODS OF THEIR USE” (ICAHN SCHOOL OF MEDICINE AT MOUNT SINAI, priority 2021, published 2024).
Read-outs that look alike come from different tables or passages of the source.

Tests used:
[1] = molecular target: E3 (CUL4) (Homo sapiens (Human), UniProt Q13619); experiment: E3 (CUL4) inhibition (Table 1); assay type: biochemical
Method: The reaction was incubated for 5 min at 37° C. […] The reaction was incubated for 5 min at room temperature. In the second step (chase), the completed Cdc34b-Ub thiol ester reaction mixture was combined with one third of the completed mono-ubiquitination mixture. The final volume was adjusted to 10 μl with a mix that contained 50 mM Tris-HCl (pH 7.4), 0.5 mM DTT, 0.1 mg/ml of BSA, 5 mM MgCl2, and 2 mM ATP. Compounds were added where indicated. The chase reaction was incubated for 10 min at 37° C. The reaction products were separated by 4-20% SDS-polyacrylamide gel electrophoresis. The reaction scheme was identical to the one described above for FIGS. 12A-B. […] The reaction products, separated by SDS-PAGE, were visualized and analyzed by phospho-imaging using Typhoon 9500 scanner.

[2] = molecular target: E3 (CUL1) (Homo sapiens (Human), UniProt Q13616); experiment: E3 (CUL1) inhibition (Table 1); assay type: biochemical
Chain of E3 (CUL1) (Q13616 whole entry): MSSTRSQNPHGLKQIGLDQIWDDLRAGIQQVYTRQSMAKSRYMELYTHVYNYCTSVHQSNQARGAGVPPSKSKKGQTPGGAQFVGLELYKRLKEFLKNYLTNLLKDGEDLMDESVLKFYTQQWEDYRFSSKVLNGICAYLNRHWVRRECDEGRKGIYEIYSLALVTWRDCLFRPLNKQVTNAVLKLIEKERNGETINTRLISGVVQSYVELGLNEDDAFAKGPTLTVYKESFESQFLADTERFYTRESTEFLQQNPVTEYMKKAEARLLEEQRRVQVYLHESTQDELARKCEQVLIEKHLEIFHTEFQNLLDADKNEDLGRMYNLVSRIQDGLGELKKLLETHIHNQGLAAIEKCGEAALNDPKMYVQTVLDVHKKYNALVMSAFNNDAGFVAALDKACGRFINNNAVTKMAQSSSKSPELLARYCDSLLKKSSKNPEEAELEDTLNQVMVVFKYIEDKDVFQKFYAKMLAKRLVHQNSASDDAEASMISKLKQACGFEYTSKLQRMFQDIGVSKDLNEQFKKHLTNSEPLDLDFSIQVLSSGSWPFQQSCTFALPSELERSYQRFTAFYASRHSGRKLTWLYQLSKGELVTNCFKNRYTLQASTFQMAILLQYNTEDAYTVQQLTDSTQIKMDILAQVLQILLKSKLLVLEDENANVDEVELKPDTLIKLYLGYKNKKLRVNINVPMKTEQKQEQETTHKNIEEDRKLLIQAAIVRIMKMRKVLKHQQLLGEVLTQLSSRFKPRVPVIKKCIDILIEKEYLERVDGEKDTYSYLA
Chain of E3 (CUL1) (P62877 whole entry partner): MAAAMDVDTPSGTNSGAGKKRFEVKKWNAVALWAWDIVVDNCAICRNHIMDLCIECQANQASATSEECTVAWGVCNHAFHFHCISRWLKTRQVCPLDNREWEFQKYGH
Method: (§1) The reaction mixture (15 μl) was assembled onto a 384-well microtiter plate. […] ATP (0.66 mM) was then added to the mix followed by a brief centrifugation to settle down the mixture. The resulting plate was incubated at 30° C. in the Synergy-H1 reader and the fluorescence signal was monitored. Ubiquitination was quantified based on the ratio of acceptor:donor fluorescence (excitation 515 nm; donor emission 570 nm, acceptor emission 670 nm).

[3] = test system: cancer cells; experiment: Apoptosis, Annexin V flow cytometry; assay type: cell-based; conditions: Table 1
Method: Cells (5×10^4) were seeded 24 hours before compound treatment. Compound was added to the culture media and cells were cultured with the compound for 48 hours. The treated cells were then transferred into 5 ml flow cytometry tubes and the well was washed once with PBS to collect any remaining cells. The cells were then pelleted at 500×g for 5 min with a Beckman CS-6KR centrifuge at 4° C. After removal of supernatant, the cells pellet was washed with Annexin V binding buffer (10 mM Hepes-NaOH, pH 7.4, 150 mM NaCl, 5 mM KCl, 1 mM MgCl2, and 1.8 mM CaCl2). Cells were pelleted once again and incubated in the dark with Annexin V-FITC (2 μg/ml) in binding buffer for 5 min then analyzed using LSRFortessa flow cytometer (BD).

[4] = molecular target: T1, ROC1-CUL1 CTD (Homo sapiens (Human), UniProt Q13616); experiment: Ligand binding by MST
T1 sequence (Q13616 411-776): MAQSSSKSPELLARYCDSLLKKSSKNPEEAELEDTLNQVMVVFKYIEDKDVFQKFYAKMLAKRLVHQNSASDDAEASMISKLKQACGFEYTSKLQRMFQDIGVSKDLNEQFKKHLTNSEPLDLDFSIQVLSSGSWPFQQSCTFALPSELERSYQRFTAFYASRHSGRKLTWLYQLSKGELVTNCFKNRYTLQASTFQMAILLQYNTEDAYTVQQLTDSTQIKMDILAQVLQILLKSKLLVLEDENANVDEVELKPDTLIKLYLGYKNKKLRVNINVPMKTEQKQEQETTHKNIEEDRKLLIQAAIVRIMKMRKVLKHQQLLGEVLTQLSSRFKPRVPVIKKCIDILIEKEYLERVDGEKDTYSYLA
T1 sequence (P62877 whole entry partner): as the sequence (P62877 whole entry partner) above
Method: E3 ligase complex (˜2 nmol) was labeled with fluorescent dye using Monolith NT Protein Labeling Kit Red-NHS (Nanotemper) in the presence of 20 mM MES pH 6.0 and 150 mM NaCl. Excess dye was removed using the included gravity flow column and eluted in storage buffer containing 20 mM Tris-HCl, pH 7.4, 150 mM NaCl, and 10% glycerol. The fluorescent E3 complex (˜0.01-0.06 μM) was mixed with increasing amount of compound in a buffer (20 μl) that contains phosphate-buffered saline, 0.1% TWEEN-20 and 2% prionex. Following incubation at room temperature for 30 min, the reaction mixture loaded into premium coated capillaries and analyzed in the Monolith NT.115 machine (Nanotemper). Thermophoresis was recorded for each sample and binding curve was generated and Kd was calculated using the included software. For reactions where significant ligand specific fluorescence quenching occurred (verified by manufacturer's SDS Denaturation-test protocol), the initial fluorescence quenching data was used directly to calculate the binding curve and Kd.

[5] = molecular target: T1, ROC1-CUL1 CTD; experiment: FRET K48 di-Ub synthesis assay; assay type: biochemical
Method: The high throughput screen (“HTS”) employed the FRET K48 di-Ub assay as established previously (Wu et al., “Suramin Inhibits Cullin-RING E3 Ubiquitin Ligases,” PNAS 113(14):E2011-2018 (2016), which is hereby incorporated by reference in its entirety) and was carried out at Memorial Sloan Kettering Cancer Center Core Screening Facility. For HTS, the assay was formatted using three reagent addition steps. Library compounds, stored in 10 mM stock plates (DMSO), were transferred into assay plates and each well contains a single compound at 100 μM in 1 μl 10% DMSO. The complete complement of proteins/enzymes (6.5 μl), containing Ub E1 (14 nM), E2 Cdc34 (124 nM), E3 ROC1-CUL1 CTD (0.2 μM), Ub C31-I555 (donor, 0.93 μM), and Ub C64-I647 (receptor, 1.62 μM), in the presence of 33 mM Tris-HCl (pH 7.4), 1.7 mM MgCl2, 0.33 mM DTT, and BSA (0.07 mg/ml), was added to each plate. The concentrations of all five proteins have been determined based on Km measurement as described previously (Wu et al., “Suramin Inhibits Cullin-RING E3 Ubiquitin Ligases,” PNAS 113(14):E2011-2018 (2016), which is hereby incorporated by reference in its entirety). To initiate ubiquitination, ATP (2.5 μl in 2.64 mM) was added and its final concentration was 0.66 mM. The concentration of ATP was set high to minimize identification of nucleotide analogues because the priority of the HTS is to find small molecule modulators specific for E3 ROC1-CUL1 CTD. In this setting, the concentration of compound and DMSO in a given well were 10 μM and 1%, respectively. After incubation at room temperature for 45 min, EDTA (30 mM) was added to terminate the reaction. The reaction was quantified based on the ratio of acceptor:donor fluorescence (excitation 515 nm; donor emission 570 nm; acceptor emission 670 nm) using a Victor high-throughput plate reader (Perkin Elmer).
as §1

[6] = Table 5, MST, read-out: E3 binding Kd
[7] = Table 9, read-out: E3 Binding Kd (MST with CUL1 CTD)
[8] = Table 9, read-out: IC50 (FRET CUL1 assay)

Chain of E3 (CUL4) (Q13619 whole entry): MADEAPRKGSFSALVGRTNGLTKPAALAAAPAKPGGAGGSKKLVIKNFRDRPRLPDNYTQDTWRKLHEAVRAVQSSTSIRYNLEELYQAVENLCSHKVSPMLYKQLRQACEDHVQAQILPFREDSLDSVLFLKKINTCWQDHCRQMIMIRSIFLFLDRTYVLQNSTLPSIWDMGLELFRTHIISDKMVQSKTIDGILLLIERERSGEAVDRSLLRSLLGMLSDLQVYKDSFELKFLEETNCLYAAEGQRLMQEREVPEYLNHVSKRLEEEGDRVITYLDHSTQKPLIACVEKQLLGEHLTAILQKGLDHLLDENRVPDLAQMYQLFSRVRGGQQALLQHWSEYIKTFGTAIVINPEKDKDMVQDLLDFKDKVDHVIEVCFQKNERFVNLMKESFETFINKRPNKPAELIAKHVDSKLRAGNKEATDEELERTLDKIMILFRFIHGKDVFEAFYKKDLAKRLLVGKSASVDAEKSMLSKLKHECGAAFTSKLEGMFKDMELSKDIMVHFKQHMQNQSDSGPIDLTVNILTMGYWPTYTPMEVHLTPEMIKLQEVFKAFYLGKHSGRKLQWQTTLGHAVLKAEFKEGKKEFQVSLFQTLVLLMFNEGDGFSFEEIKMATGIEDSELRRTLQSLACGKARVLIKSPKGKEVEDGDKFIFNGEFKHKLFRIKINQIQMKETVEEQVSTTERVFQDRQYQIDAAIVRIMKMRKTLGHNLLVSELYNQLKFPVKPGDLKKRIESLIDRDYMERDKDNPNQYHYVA
Chain of E3 (CUL4) (P62877 whole entry partner): as the sequence (P62877 whole entry partner) above

| Compound | EC50 [1] [µM] | EC50 [2] [µM] | EC50 [3] [µM] | further results |
| --- | --- | --- | --- | --- |
| COc1ccc2c(=O)c(-c3cnn(Cc4ccccc4Cl)c3)c(C(F)(F)F)oc2c1OC [MSSM-RJD-MM-012, 3-(1-(2-chlorobenzyl)-1H-pyrazol-4-yl)-7,8-dimethoxy-2-(trifluoromethyl)-4H-chromen-4-one] | > 10 | > 100 | > 20 |  |
| O=c1c(Oc2ccccc2)c(C(F)(F)F)oc2c3c(ccc12)OCO3 [Compound 33-4, 7-phenoxy-8-(trifluoromethyl)-6H-[1,3]dioxolo[4,5-h]chromen-6-one] |  |  |  | Kd [4, 6]: 19 µM; IC50 ([5]; Table 5, read-out: E3 inhibition IC50): 80 µM |
| COc1ccc2c(=O)c(Oc3ccccc3)c(C)oc2c1OC [#33-3, 7,8-dimethoxy-2-methyl-3-phenoxy-4H-chromen-4-one] |  |  |  | Kd [4, 6]: > 500 µM; E3 inhibition IC50 ([5]; Table 5): No inhibition; E3 inhibition ([5]; up to 80 μM): No inhibition |
| O=c1c(-c2cnn(Cc3cccc(F)c3)c2)c(C(F)(F)F)oc2c(O)c(O)ccc12 [MSSM-RJD-MM-024, 3-(1-(3-fluorobenzyl)-1H-pyrazol-4-yl)-7,8-dihydroxy-2-(trifluoromethyl)-4H-chromen-4-one] | > 10 | 7.9 | 10 to 20 |  |
| O=c1c(-c2cnn(Cc3ccc(Cl)cc3)c2)c(C(F)(F)F)oc2c(O)c(O)ccc12 [MSSM-RJD-MM-006, 3-(1-(4-chlorobenzyl)-1H-pyrazol-4-yl)-7,8-dihydroxy-2-(trifluoromethyl)-4H-chromen-4-one] | > 10 | 7.6 | > 20 |  |
| CCCCn1cc(-c2c(C(F)(F)F)oc3c(OC)c(OC)ccc3c2=O)cn1 [MSSM-RJD-MM-002, 3-(1-butyl-1H-pyrazol-4-yl)-7,8-dimethoxy-2-(trifluoromethyl)-4H-chromen-4-one] | > 10 | 96 | > 20 |  |
| CCn1cc(-c2c(C(F)(F)F)oc3c(OC)c(OC)ccc3c2=O)cn1 [MSSM-RJD-MM-005] | > 10 | > 100 | > 20 |  |
| O=c1c(-c2cnn(-c3ccc(C(F)(F)F)cc3)c2)c(C(F)(F)F)oc2c(O)c(O)ccc12 [KH-3-150] | > 14 | 9.3 | 6 |  |
| O=c1c(-c2cnn(Cc3ccc(C(F)(F)F)cc3)c2)c(C(F)(F)F)oc2c(O)c(O)ccc12 [MSSM-RJD-MM-014, 7,8-dihydroxy-2-(trifluoromethyl)-3-(1-(4-(trifluoromethyl)benzyl)-1H-pyrazol-4-yl)-4H-chromen-4-one] | ~10 | 5.4 | ~8 |  |
| O=c1c(Oc2cccc(Br)c2)c(C(F)(F)F)oc2c(O)c(O)ccc12 |  |  |  | Kd [4, 7]: 1.9 ± 0.28 µM; IC50 [5, 8]: 2.4 µM |
| N#Cc1ccc(-n2cc(-c3c(C(F)(F)F)oc4c(O)c(O)ccc4c3=O)cn2)cc1 [KH-3-152] | > 14 | 9 | 30 |  |
| O=c1c(-c2cnn(Cc3ccccc3F)c2)c(C(F)(F)F)oc2c(O)c(O)ccc12 [MSSM-RJD-MM-022, 3-(1-(2-fluorobenzyl)-1H-pyrazol-4-yl)-7,8-dihydroxy-2-(trifluoromethyl)-4H-chromen-4-one] | > 10 | 30 | > 20 |  |
| O=c1c(Oc2ccc(Br)cc2)c(C(F)(F)F)oc2c(O)c(O)c(Br)cc12 |  |  |  | Kd [4, 7]: 1.19 ± 0.36 µM; IC50 [5, 8]: 8.3 µM |
